Earlier results, collected in patent publication US6924311B2, “Methods for affecting various diseases utilizing LXR compounds” (X-Ceptor Therapeutics, Inc., priority 2001, dated 2005).

Settings: db/db mice, known anti-diabetic RXR agonist, positive control; cited from earlier work

CC1(C)CCC(C)(C)c2cc(C3(c4ccc(C(=O)O)cn4)CC3)c(F)cc21 [Compound 2, 6-[1-(3-Fluoro-5,5,8,8-tetramethyl-5,6,7,8-tetrahydro-napthalen-2-yl)-cyclopropyl]-nicotinic acid]
effect on blood glucose levels: effectively lower blood glucose levels in db/db mice
